Assay results taken from US20190002585A1, “CANCER TREATMENT METHODS AND COMPOSITIONS” (The Cleveland Clinic Foundation, priority 2017, published 2019).
Where a SMILES comes first, the peptide text is derived from it. The star is where a group is joined. Cbz = O=C(OCc1ccccc1)*; CH2F = FC*

Columns and labels:
[1] = test system: WT A549 cells; assay: Cell death assay, IncuCyte real-time imaging, dual dye; type: cell-based
Description: (§1) Cell lines and viruses. Human A549 cells (ATCC® CCL-185™) validated by STR analysis were cultured in RPMI 1640 medium (Gibco) supplemented with 10% fetal bovine serum (FBS), 100U/ml penicillin and 100 μg/ml streptomycin. PC3, DU145 and C4-2 cells were grown in RPMI with 10% FBS. HAEC, BEAS 2B and BETA cells were grown in LHC-8 (Biofluids/Biosource, catalog #P141-500) supplemented with 0.1% epinehrin (Biofluids/Biosource, catalog #355-002), 3.3 mM retinoic acid (Biofluids/Biosource, catalog #348-001) and penicillin-streptomycin-fungizone (Invitogen, catalog #15240-062) and were a gift from Drs. Suzy Comhair and Serpil Erzurum (Cleveland Clinic).
(§2) Cells (20,000 per well) were seeded in 24-well plates or 8,000 cells per well in 96-well plates and treated as stated in figure legends. The cells were incubated with 250 nM Sytox-Green dye (Thermo Fisher), a nucleic acid stain that is an indicator of dead cells and which is impermeant to live cells, and 250 nM of cell permeable dye Syto™ 60-Red (ThermoFisher), which allows quantification of the total number of cells present in each field, using an IncuCyte Live-Cell Imaging System and software (Essen Instruments 2015A) for 72 hours. Cell death was measured by counting the green objects per/well (dead cells, green) and then normalizing to the total number of cells per/well (red objects) at each time point using IncuCyte software.

[2] = test system: RNase L KO A549 cells; assay: as above; type: cell-based, human; set-up: AZA sensitivity: dose or concentration left out as unconfirmed
Description: as §1
(§3) The A549 RNase L KO cells were described previously. Additional knockout cells were generated using the CRISPR Cas9 system. The sgRNA sequences were chosen from a published database. The guide RNA sequences were synthesized as DNA oligonucleotides by IDT. Primers were annealed, phosphorylated and ligated into vector LentiCRISPR v2 (Addgene 52961) that was prepared by digestion with BsmBI. The resulting plasmids were transformed into Stbl3 chemically competent cells (Invitrogen) and grown on a bacterial culture plate at 37° C. Colonies were screened by PCR using the U6 primer and gene specific reverse primer to generate approximately 300 bp product. Positive clones were cultured and plasmid DNA was prepared and sequence verified using the U6 primer. The AKAP7 sgRNA sequences are: sgAKAP7-2 FW CACCGTGAGCGACTGGCCAAAGCAA (SEQ ID NO:1) and sgAKAP7-2 REV AAACTTGCTTTGGCCAGTCGCTCA C (SEQ ID NO:2). The PDE12 sgRNA sequences are: sgPDE12_10.FW CACCGGGATGCCTGGCAAGACGGCG (SEQ ID NO:3) and sgPDE12_10.REV AAACCGCCGTCTTGCCAGGCATCCC (SEQ ID NO:4). Cell cloning was done by limited dilution. The CRISPR vector, pLenti-sgRL-6, was used to knockout RNase L in PC3 cells as we described for RNase L KO A549 cells. To obtain the PDE12/AKAP7 DKO cells, a PDE12 knockout A549 cell line was infected with pseudo lentiviruses expression sgRNA for AKAP7 followed by single cell cloning. The PDE12/RNase L DKO cells were obtained by infecting the RNase L KO A549 cells with the pseudo lentivirus expressing sgRNA for AKAP7 followed by single cell cloning. Resulting clones were screened for knock-out of expression using Western Blots with anti-PDE12 antibody (Abcam ab87738), anti-AKAP7 (Proteintech: Cat#12591-1-AP) antibody or monoclonal antibody against human RNase L [13].
as §2

[3] = test system: RNase L KO A549 cells; assay: Apoptosis assay (caspase 3/7), IncuCyte; type: cell-based, human; settings: 50 uM AZA
Description: (§4) Cells were seeded in 96-well plates and treated with Aza as above. The cells were incubated with IncuCyte™ Kinetic Caspase-3/7 Apoptosis Assay Reagent (green) according to manufacturer's protocol and with 250 nM of Syto Red dye (ThermoFisher) for 24 hours. The apoptotic index was determined by determining the total count [green Integrated Intensity (GCU×μm^2/Image)] and then normalizing by count confluence (percent) using IncuCyte software.

[4] = test system: MAVS/RNase L DKO A549 cells; assay: Apoptosis assay (caspase 3/7), IncuCyte; type: cell-based, human; settings: 50 uM AZA
Description: as §4

[5] = test system: WT A549 cells; assay: Apoptosis assay (caspase 3/7), IncuCyte; type: cell-based, human
Description: as §4

[6] = test system: MAVS KO A549 cells; assay: Apoptosis assay (caspase 3/7), IncuCyte; type: cell-based, human; settings: 50 uM AZA, compared with WT
Description: as §4

[7] = test system: ADAR1 p150 KO A549 cells; assay: Cell survival, IncuCyte; type: cell-based, human; set-up: dose or concentration left out as unconfirmed; settings: AZA (FIG. 19C)
Description: as §2

[8] = test system: RNase L-ADAR1 DKO A549 cells; assay: Cell survival, IncuCyte; type: cell-based, human; settings: 50 mM AZA (FIG. 19)
Description: (§5) In FIG. 19 WT, RNase L-ADAR1 DKO, MAVS-ADAR1 DKO, MAVS-ADAR1-RNase L TKO and p150 ADAR1 isoform KO A549 cells were incubated without AZA (panel A) or with […] AZA (panels B and C). Percent survival after […] AZA treatment was calculated using an IncuCyte system. The data are average=±SD from three independent replicates. Similar data were obtained from two additional independent experiments.
as §2

[9] = test system: MAVS-ADAR1-RNase L TKO A549 cells; assay: Cell survival, IncuCyte; type: cell-based, human; settings: 50 μM AZA (FIG. 19)
Description: as §5, §2

[10] = test system: MAVS-ADAR1 DKO A549 cells; assay: Cell survival, IncuCyte; type: cell-based, human; settings: 50 mM AZA (FIG. 19), compared with WT cells
Description: as §5, §2

[11] = test system: MAVS-RNase L DKO A549 cells; assay: Cell death assay, IncuCyte real-time imaging; type: cell-based, human; settings: concentrations up to 100 uM
Description: as §2, with “SytoTM” for “Syto™”, “[…])” for “2015A)”

[12] = test system: MAVS KO A549 cells; assay: Cell death assay, IncuCyte real-time imaging; type: cell-based, human; settings: different doses of AZA, compared with WT
Description: as §2, with “SytoTM” for “Syto™”, “[…])” for “2015A)”

[13] = test system: PC3 prostate cancer cells; assay: Cell death assay, IncuCyte real-time imaging; type: cell-based, human; settings: FIG. 9
Description: as §1, §2

[14] = test system: DU145 prostate cancer cells; assay: Cell death assay, IncuCyte real-time imaging; type: cell-based, human; settings: FIG. 8
Description: as §1, §2

[15] = test system: C4-2 prostate cancer cells; assay: Cell death assay, IncuCyte real-time imaging; type: cell-based, human; settings: FIG. 8
Description: as §1, §2

[16] = test system: PDE12 KO A549 cells; assay: Cell survival, IncuCyte; type: cell-based, human; settings: 50 uM AZA (FIG. 11)
Description: as §3, with “To obtain the PDE12/AKAP7 DKO cells, a PDE12 knockout A549 cell line was infected with pseudo lentiviruses expression sgRNA for AKAP7 followed by single cell cloning. The PDE12/RNase L DKO cells were obtained by infecting the RNase L KO A549 cells with the pseudo lentivirus expressing sgRNA for AKAP7 followed by single cell cloning. Resulting clones were screened for knock-out of expression using Western Blots with anti-PDE12 antibody (Abcam ab87738), anti-AKAP7 (Proteintech: Cat#12591-1-AP) antibody or monoclonal antibody against human RNase L [13].” left out
as §2

[17] = test system: AKAP7-PDE12 DKO A549 cells; assay: Cell survival, IncuCyte; type: cell-based, human; settings: 50 uM AZA (FIG. 11)
Description: as §3, with “To obtain the PDE12/AKAP7 DKO cells, a PDE12 knockout A549 cell line was infected with pseudo lentiviruses expression sgRNA for AKAP7 followed by single cell cloning. The PDE12/RNase L DKO cells were obtained by infecting the RNase L KO A549 cells with the pseudo lentivirus expressing sgRNA for AKAP7 followed by single cell cloning. Resulting clones were screened for knock-out of expression using Western Blots with anti-PDE12 antibody (Abcam ab87738), anti-AKAP7 (Proteintech: Cat#12591-1-AP) antibody or monoclonal antibody against human RNase L [13].” left out
as §2

[18] = test system: AKAP7 KO A549 cells; assay: Cell survival, IncuCyte; type: cell-based, human; settings: 50 uM AZA (FIG. 11)
Description: as §3, with “To obtain the PDE12/AKAP7 DKO cells, a PDE12 knockout A549 cell line was infected with pseudo lentiviruses expression sgRNA for AKAP7 followed by single cell cloning. The PDE12/RNase L DKO cells were obtained by infecting the RNase L KO A549 cells with the pseudo lentivirus expressing sgRNA for AKAP7 followed by single cell cloning. Resulting clones were screened for knock-out of expression using Western Blots with anti-PDE12 antibody (Abcam ab87738), anti-AKAP7 (Proteintech: Cat#12591-1-AP) antibody or monoclonal antibody against human RNase L [13].” left out
as §2

[19] = test system: RNase L KO A549 cells; assay: PARP cleavage, Western blot; type: cell-based, human; settings: 50 uM AZA for 48 hours
Description: (§6) PARP cleavage was monitored in Western blots probed with [anti PAPR1 (rabbit polyclonal) (Santa Cruz Biotechnology)]. β-actin levels were monitored with 3-actin (mouse monoclonal) antibody (Sigma-Aldrich) to evaluated as a control.
(§7) Prior to lysis, cells were washed twice in cold phosphate-buffered saline (PBS). Cell extracts were prepared with lysis buffer supplemented with phosphatase/protease inhibitors followed by incubation on ice for 20 min. Lysates were subjected to centrifugation at 12,000 g for 10 min, and the supernatants collected and protein quantified by Bradford assays (BioRaD). Cell lysates ([…]) were separated on 8% or 10% SDS PAGE gels and proteins were transferred to polyvinylidene difluoride membranes (0.45 μm) (BioRaD) and probed with antibodies according to the different manufacturers' recommendations.

[20] = test system: WT A549 cells; assay: PARP cleavage, Western blot; type: cell-based, human; settings: 50 uM AZA for 48 hours
Description: as §6, §7

[21] = test system: OAS (1, 2, 3) triple KO HME cells; assay: Cell death assay, IncuCyte; type: cell-based, human; settings: AZA 50 μM, compared with WT HME
Description: (§8) Both WT and R667A RNase L have a FLAG epitope attached. Cells were lysed after 72 hr and proteins were analyzed by Western blot probed with anti-Flag M2 antibody (Sigma-Aldrich) (upper) and anti-β-actin antibody (Sigma-Aldrich) (lower). […] Dead cells and total cells were determined with an IncuCyte real-time imaging system using a dual-dye method. A minimum of three wells were treated with each experimental condition. The data are average±SD from three independent replicates. […] Three separate wells were treated with each experimental condition and a minimum of 4 image fields (>10,000 cells/well) were analyzed per well.
as §2

[22] = test system: RNASEL KO A549 cells with knock-in of mutant RNase L (R667A); assay: Cell death assay, IncuCyte, RNase L knock-in; type: cell-based, human; settings: 50 μM AZA for 72 hr
Description: as §8, §2

[23] = test system: RNASEL KO A549 cells with knock-in of WT RNase L; assay: Cell death assay, IncuCyte, RNase L knock-in; type: cell-based, human; settings: 50 μM AZA for 72 hr
Description: as §8, §2

[24] = test system: primary alveolar epithelial cells HAEC; assay: Cell death assay, IncuCyte live-cell imaging; type: cell-based, human; settings: FIG. 7
Description: as §1, §2

[25] = test system: bronchial epithelium BEAS 2B cells; assay: Cell death assay, IncuCyte live-cell imaging; type: cell-based, human; settings: FIG. 7
Description: as §1, §2

[26] = test system: bronchial epithelial cells BETA; assay: Cell death assay, IncuCyte live-cell imaging; type: cell-based, human; settings: FIG. 7
Description: as §1, §2

## Nc1ncn([C@H]2C[C@H](O)[C@@H](CO)O2)c(=O)n1 [DAC, 5-aza-2′-deoxycytidine]
[1]; 25 uM DAC, up to 70 hrs
  cell survival: 56%
[1]; 50 uM DAC, up to 70 hrs
  cell survival: 47%
[1]; up to 70 hrs
  sensitivity to DAC relative to AZA: less sensitive
[2]; DAC, up to 70 hrs
  effect on survival: no effect

## Nc1ncn([C@@H]2O[C@H](CO)[C@@H](O)[C@H]2O)c(=O)n1 [AZA, 5-azacytidine]
[1]; 50 uM AZA, by 60 hours of treatment
  cell death: 85%
[1]; AZA 25 uM by itself
  cell survival: 57%
[1]; FIG. 7, compared with normal lung epithelia
  AZA sensitivity: highly sensitive
[1]; IR 10 Gy for 10 min, then AZA 25 μM or 12.5 μM for 50 hr
  cytotoxicity of AZA with ionizing radiation: potentiates the cytotoxicity of AZA
[3]
  caspase3/7 activation: resistant
[4]
  caspase3/7 activation: highly resistant
[5]; 50 uM AZA
  caspase3/7 activation: high levels of caspase3/7 activation
[6]
  caspase3/7 activation: at best only a small effect in reducing caspase3/7 activation
[7]
  cytotoxic effect of AZA: highly sensitive
[8]
  AZA sensitivity: AZA resistant
[9]
  AZA sensitivity: AZA resistant
[10]
  AZA sensitivity: enhanced AZA sensitivity
[11]
  sensitivity to AZA treatment: almost completely resistant
[12]
  sensitivity to AZA treatment: slightly less sensitive
[13]
  induction of cell death by AZA: sensitive
[14]
  induction of cell death by AZA: sensitive
[15]
  induction of cell death by AZA: relatively resistant
[16]
  cell survival: 37%
[17]
  cell survival: 17%
[18]
  cell survival: 56%
[19]
  PARP cleavage: only a slight increase
[20]
  cleaved PARP: large increase in cleaved PARP
[21]
  sensitivity to AZA: relatively resistant
[22]
  sensitivity to AZA treatment: did not
[23]
  sensitivity to AZA treatment: sensitized cells to AZA treatment
[24]
  AZA sensitivity: resistant
[25]
  AZA sensitivity: resistant
[26]
  AZA sensitivity: resistant
[2]; 50 uM AZA
  cell death: 9%
[2]; 100 uM AZA
  cell death: 17%
[2]; AZA 25 uM, 2-5A 1 uM transfected, or both
  sensitivity to treatment (cell survival): completely resistant
[2]; AZA (FIG. 19)
  AZA sensitivity: AZA resistant

## CC(NC(=O)C(NC(=O)OCc1ccccc1)C(C)C)C(=O)NC(CC(=O)O)C(=O)CF (stereo not drawn) [Z-VAD] (Cbz-Val-Ala-Asp-CH2F; configuration not given here)
[5]; 50 uM Z-VAD in presence of 50 uM AZA
  effect on caspase3/7 activation by AZA: greatly suppressed caspase3/7 activation
